# Measured values: patent publication US7727956B2, “Deoxonadepsipeptides” (Aicuris GmbH & Co. KG, priority 2004, dated 2010)
# Like-named read-outs stand apart in the source and are kept apart here. Starred links: 1 amine or outer side, 2 acyl side, 3 side chain; linkers in the order of their positions; H or OH if unused. Positions of bridges follow the written chain, without caps; N, C: chain ends. Non-standard residues stand in square brackets, D forms with d. Residues, ends and D or L forms follow the SMILES beside them. X3 = C[Si](C)(C)C[C@H](N)CN([C@@H](C[Si](C)(C)C)C(=O)[*:2])[*:1]; X4 = CC(C)(C)C[C@@H](C(=O)[*:2])N(C[C@@H](N)C[Si](C)(C)C)[*:1]; X1 = CC(C)C[C@@H](C(=O)[*:2])N(C[C@@H](N)C[Si](C)(C)C)[*:1]; Phe(3R-OH) = O=C([C@@H](N[*:1])[C@H](O[*:3])c1ccccc1)[*:2]; X2 = CC(C)(C)C[C@H](N)CN([C@@H](CC(C)(C)C)C(=O)[*:2])[*:1]; Asn(3S-OH) = NC(=O)[C@@H](O)[C@H](N)C(=O)O; Leu(3R-OH) = CC(C)[C@@H](O)[C@H](N)C(=O)O; aThr = C[C@H](O)[C@H](N)C(=O)O
# Legend:
# E. faecalis ICB 27159 = format: cell-based, Entercococcus faecalis
# Procedure: (§1) Determination of the Minimum Inhibitory Concentration (MIC):
# (§2) The MIC is determined in the liquid dilution test in accordance with the NCCLS guidelines. Overnight cultures of Staphylococcus aureus 133, Entercococcus faecalis 27159, E. faecium 4147 and Streptococcus pneumoniae G9a are incubated with the described test substances in a 1:2 dilution series. The MIC determination is carried out with a cell count of 105 microorganisms per ml in Isosensitest medium (Difco, Irvine/USA), with the exception of S. pneumoniae, which is tested in BHI broth (Difco, Irvine/USA) with 10% bovine serum at a cell count of 106 microorganisms per ml. The cultures are incubated at 37° C. for 18-24 hours, S. pneumoniae in the presence of 10% CO2.
# (§3) The lowest substance concentration in each case at which no visible bacterial growth occurs any more is defined as the MIC. The MIC values are reported in μg/ml.
# [1] = test system: Streptococcus pneumoniae G9a; format: cell-based
# Procedure: as §1, §2, §3
# [2] = test system: Staphylococcus aureus 133; format: cell-based
# Procedure: as §1, §2, §3
# [3] = Isosensitest medium, 37° C., 18-24 hours
# [4] = BHI broth with 10% bovine serum, 37° C., 18-24 hours, 10% CO2
SMILES,MIC E. faecalis ICB 27159 (E. faecalis ICB 27159; ICB 27159) [µg/mL],MIC S. pneumoniae ([1]; G9a) [µg/mL],MIC S. aureus 133 [2]; 133 [µg/mL],MIC E. faecalis ICB 27159 (E. faecalis ICB 27159; [3]) [µg/mL],"MIC S. pneumoniae [1, 4] [µg/mL]","MIC S. aureus 133 [2, 3] [µg/mL]"
"CC[C@H](C)[C@@H]1NC(=O)[C@@H](CCCNC(=N)N)NC(=O)[C@H](CC(C)C)NC(=O)[C@H]([C@H](O)C(C)C)NC(=O)[C@@H](NC(=O)[C@H](CC(C)(C)C)NC[C@@H](N)CC(C)(C)C)[C@@H](c2ccccc2)OC(=O)[C@H](CO)NC(=O)[C@H]([C@H](O)C(N)=O)NC(=O)CNC(=O)[C@H]([C@H](C)O)NC1=O [Example 8, N-{N-[(2S)-2-Amino-4,4-dimethylpent-1-yl]-β-tBu-Ala-de(1-D-leucine-2-leucine)-lysobactintris-hydrofluoro-acetate] (H-[X2][Phe(3R-OH)][Leu(3R-OH)]L[dR]I[aThr]G[Asn(3S-OH)]S; ester 2-C)",1,0.063,0.5,–,–,–
"CC[C@H](C)[C@@H]1NC(=O)[C@@H](CCCNC(=N)N)NC(=O)[C@H](CC(C)C)NC(=O)[C@H]([C@H](O)C(C)C)NC(=O)[C@@H](NC(=O)[C@H](CC(C)(C)C)NC[C@@H](N)C[Si](C)(C)C)[C@@H](c2ccccc2)OC(=O)[C@H](CO)NC(=O)[C@H]([C@H](O)C(N)=O)NC(=O)CNC(=O)[C@H]([C@H](C)O)NC1=O [Example 15, N-{N-[(2R)-2-Amino-3-tri-methylsilylprop-1-yl]-(β-tBu-Ala)}-de(1-D-leucine-2-leucine) lysobactin trishydro-trifluoroacetate] (H-[X4][Phe(3R-OH)][Leu(3R-OH)]L[dR]I[aThr]G[Asn(3S-OH)]S; ester 2-C)",–,–,–,1,0.063,0.5
"CC[C@H](C)[C@@H]1NC(=O)[C@@H](CCCNC(=N)N)NC(=O)[C@H](CC(C)C)NC(=O)[C@H]([C@H](O)C(C)C)NC(=O)[C@@H](NC(=O)[C@H](CC(C)C)NC[C@@H](N)C[Si](C)(C)C)[C@@H](c2ccccc2)OC(=O)[C@H](CO)NC(=O)[C@H]([C@H](O)C(N)=O)NC(=O)CNC(=O)[C@H]([C@H](C)O)NC1=O [Example 5, N-[(2R)-2-Amino-3-trimethylsilyl-prop-1-yl]de(1-D-leucine) lysobactin trishydro-trifluoroacetate] (H-[X1][Phe(3R-OH)][Leu(3R-OH)]L[dR]I[aThr]G[Asn(3S-OH)]S; ester 2-C)",–,–,–,1,0.063,0.5
"CC[C@H](C)[C@@H]1NC(=O)[C@@H](CCCNC(=N)N)NC(=O)[C@H](CC(C)C)NC(=O)[C@H]([C@H](O)C(C)C)NC(=O)[C@@H](NC(=O)[C@H](C[Si](C)(C)C)NC[C@@H](N)C[Si](C)(C)C)[C@@H](c2ccccc2)OC(=O)[C@H](CO)NC(=O)[C@H]([C@H](O)C(N)=O)NC(=O)CNC(=O)[C@H]([C@H](C)O)NC1=O [Example 14, N-{N-[(2R)-2-Amino-3-trimethylsilyl-prop-1-yl]-(β-trimethylsilyl)-Ala]}de(1-D-leucine-2-leucine)-lysobactin tris-hydrotrifluoro-acetate] (H-[X3][Phe(3R-OH)][Leu(3R-OH)]L[dR]I[aThr]G[Asn(3S-OH)]S; ester 2-C)",–,–,–,0.125,0.0156,0.25
